Test results published in US20170057955A1, “Pyridopyrimidinone Compounds for Modulating the Catalytic Activity of Histone Lysine Demethylases (KDMs)” (Dong-A Socio Holdings Co., Ltd., priority 2015, published 2017).

Biological target: T1, Recombinant human JARID1B/KDM5B (Homo sapiens, UniProt Q9UGL1)
T1 construct: purchased Active Motif 31432; host or cells: Sf9 insect cells
Test: LANCE Ultra TR-FRET JARID1B (KDM5B) demethylase inhibition assay
Assay type: biochemical
Settings: 0.1 uM of test-compounds, FLAG-JARID1B, 500 nM biotinylated H3K4me3 peptide substrate, 30 min at room temperature
Outline: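 FLAG-tagged JARID1B from Sf9 cells, pre-incubated 5 min with 0.1 uM compound (1% DMSO), then 500 nM biotinylated H3K4me3 peptide, 500 uM 2-OG, 25 uM Fe(II), 2 mM ascorbate in pH 7.5 Hepes buffer. After 30 min at room temperature, H3K4me2/1 product detected by TR-FRET (665/590 nm ratio).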

T1 sequence (Q9UGL1 whole entry): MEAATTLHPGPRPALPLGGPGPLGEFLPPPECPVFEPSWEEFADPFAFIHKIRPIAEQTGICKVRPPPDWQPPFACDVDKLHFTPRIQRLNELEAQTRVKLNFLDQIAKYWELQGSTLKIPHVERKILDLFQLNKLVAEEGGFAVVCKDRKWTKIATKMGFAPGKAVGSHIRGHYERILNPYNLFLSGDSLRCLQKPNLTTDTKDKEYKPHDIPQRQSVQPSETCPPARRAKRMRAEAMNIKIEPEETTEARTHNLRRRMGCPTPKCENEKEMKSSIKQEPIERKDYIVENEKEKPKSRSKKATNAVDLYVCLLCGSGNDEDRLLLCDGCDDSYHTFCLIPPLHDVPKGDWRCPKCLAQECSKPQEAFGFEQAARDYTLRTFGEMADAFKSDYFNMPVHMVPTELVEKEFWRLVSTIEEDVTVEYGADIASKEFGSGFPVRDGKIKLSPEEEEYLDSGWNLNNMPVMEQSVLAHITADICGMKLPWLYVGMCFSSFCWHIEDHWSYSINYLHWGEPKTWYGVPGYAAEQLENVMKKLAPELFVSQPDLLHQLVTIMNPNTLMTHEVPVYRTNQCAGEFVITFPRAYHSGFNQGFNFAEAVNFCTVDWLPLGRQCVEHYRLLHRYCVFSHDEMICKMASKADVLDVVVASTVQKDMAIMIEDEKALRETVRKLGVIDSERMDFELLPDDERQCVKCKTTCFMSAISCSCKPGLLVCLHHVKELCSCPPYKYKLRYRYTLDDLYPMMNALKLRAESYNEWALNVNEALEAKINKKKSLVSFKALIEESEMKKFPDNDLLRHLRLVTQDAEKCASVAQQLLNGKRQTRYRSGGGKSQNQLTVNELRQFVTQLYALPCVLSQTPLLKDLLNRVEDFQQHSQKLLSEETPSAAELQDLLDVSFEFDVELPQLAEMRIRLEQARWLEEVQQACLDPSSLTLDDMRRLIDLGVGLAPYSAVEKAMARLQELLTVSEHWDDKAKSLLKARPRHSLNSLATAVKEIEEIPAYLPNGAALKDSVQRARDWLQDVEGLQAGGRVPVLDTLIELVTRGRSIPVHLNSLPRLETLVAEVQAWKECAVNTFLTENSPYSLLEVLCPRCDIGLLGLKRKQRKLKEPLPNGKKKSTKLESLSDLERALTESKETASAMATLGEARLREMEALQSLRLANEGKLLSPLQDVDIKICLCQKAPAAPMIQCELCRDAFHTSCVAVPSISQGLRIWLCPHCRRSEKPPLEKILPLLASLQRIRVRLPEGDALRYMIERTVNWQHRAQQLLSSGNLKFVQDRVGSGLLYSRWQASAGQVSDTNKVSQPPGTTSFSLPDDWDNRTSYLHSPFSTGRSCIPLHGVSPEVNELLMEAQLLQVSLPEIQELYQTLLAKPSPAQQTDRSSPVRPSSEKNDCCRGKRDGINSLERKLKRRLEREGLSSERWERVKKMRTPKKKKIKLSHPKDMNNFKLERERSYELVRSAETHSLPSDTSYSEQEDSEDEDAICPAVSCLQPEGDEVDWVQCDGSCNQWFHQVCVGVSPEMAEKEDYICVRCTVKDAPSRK

With `CCC[C@H](CO)Nc1nc(-c2nccc3c(=O)[nH]c(COc4ccc(F)c(Cl)c4)nc23)cs1` [Compound 121, (R)-2-((3-chloro-4-fluorophenoxy)methyl)-8-(2-((1-hydroxypentan-2-yl)amino)thiazol-4-yl)pyrido[3,4-d]pyrimidin-4(3H)-one] the inhibition at 0.1 µM was 20 to 50%.
For `CCOC(=O)c1nc(-c2nccc3c(=O)[nH]c(COc4ccc(F)c(Cl)c4)nc23)cs1` [Compound 122, ethyl 4-(2-((3-chloro-4-fluorophenoxy)methyl)-4-oxo-3,4-dihydropyrido[3,4-d]pyrimidin-8-yl)thiazole-2-carboxylate], the inhibition at 0.1 µM was < 20%.
With `CC(CNc1nc(-c2nccc3c(=O)[nH]c(COc4ccc(F)c(Cl)c4)nc23)cs1)Oc1ccccc1` (stereo not drawn) [Compound 123, 2-((3-chloro-4-fluorophenoxy)methyl)-8-(2-((2-phenoxypropyl)amino)thiazol-4-yl)pyrido[3,4-d]pyrimidin-4(3H)-one] the inhibition at 0.1 µM was < 20%.
With `O=C(Nc1nc(-c2nccc3c(=O)[nH]c(COc4ccc(F)c(Cl)c4)nc23)cs1)c1ccccc1` [Compound 124, N-(4-(2-((3-chloro-4-fluorophenoxy)methyl)-4-oxo-3,4-dihydropyrido[3,4-d]pyrimidin-8-yl)thiazol-2-yl)benzamide] the inhibition at 0.1 µM was < 20%.
For `O=c1[nH]c(COc2ccc(F)cc2)nc2c(-c3csc(NCCO)n3)nccc12` [Compound 125, 2-((4-fluorophenoxy)methyl)-8-(2-((2-hydroxyethyl)amino)thiazol-4-yl)pyrido[3,4-d]pyrimidin-4(3H)-one], the inhibition at 0.1 µM was ≥ 50%.
With `CN(C)CCNc1nc(-c2nccc3c(=O)[nH]c(COc4ccc(F)cc4)nc23)cs1` [Compound 126, 8-(2-((2-(dimethylamino)ethyl)amino)thiazol-4-yl)-2-((4-fluorophenoxy)methyl) pyrido[3,4-d]pyrimidin-4(3H)-one] the inhibition at 0.1 µM was ≥ 50%.
`CN1CCC(Nc2nc(-c3nccc4c(=O)[nH]c(COc5ccc(F)cc5)nc34)cs2)CC1` [Compound 127, 2-((4-fluorophenoxy)methyl)-8-(2-((1-methylpiperidin-4-yl)amino)thiazol-4-yl)pyrido[3,4-d]pyrimidin-4(3H)-one] was tested, and the inhibition at 0.1 µM was ≥ 50%.
For `O=c1[nH]c(COc2ccc(F)cc2)nc2c(-c3csc(NC4CCN(Cc5ccccc5)CC4)n3)nccc12` [Compound 128, 8-(2-((1-benzylpiperidin-4-yl)amino)thiazol-4-yl)-2-((4-fluorophenoxy)methyl) pyrido[3,4-d]pyrimidin-4(3H)-one], the inhibition at 0.1 µM was < 20%.
`O=c1[nH]c(COc2cc(F)cc(F)c2)nc2c(-c3csc(NCCO)n3)nccc12` [Compound 129, 2-((3,5-difluorophenoxy)methyl)-8-(2-((2-hydroxyethyl)amino)thiazol-4-yl)pyrido[3,4-d]pyrimidin-4(3H)-one] was tested, and the inhibition at 0.1 µM was < 20%.
`CN(C)CCNc1nc(-c2nccc3c(=O)[nH]c(COc4cc(F)cc(F)c4)nc23)cs1` [Compound 130, 2-((3,5-difluorophenoxy)methyl)-8-(2-((2-(dimethylamino)ethyl)amino)thiazol-4-yl)pyrido[3,4-d]pyrimidin-4(3H)-one] was tested, and the inhibition at 0.1 µM was ≥ 50%.
For `CN1CCC(Nc2nc(-c3nccc4c(=O)[nH]c(COc5cc(F)cc(F)c5)nc34)cs2)CC1` [Compound 131, 2-((3,5-difluorophenoxy)methyl)-8-(2-((1-methylpiperidin-4-yl)amino)thiazol-4-yl)pyrido[3,4-d]pyrimidin-4(3H)-one], the inhibition at 0.1 µM was ≥ 50%.
Work on `O=c1[nH]c(COc2ccccc2Cl)nc2c(-c3csc(NCCO)n3)nccc12` [Compound 132, 2-((2-chlorophenoxy)methyl)-8-(2-((2-hydroxyethyl)amino)thiazol-4-yl)pyrido[3,4-d]pyrimidin-4(3H)-one] yielded an inhibition at 0.1 µM of 20 to 50%.
`O=c1[nH]c(COc2cccc(Cl)c2)nc2c(-c3csc(NCCO)n3)nccc12` [Compound 133, 2-((3-chlorophenoxy)methyl)-8-(2-((2-hydroxyethyl)amino)thiazol-4-yl)pyrido[3,4-d]pyrimidin-4(3H)-one] showed an inhibition at 0.1 µM of 20 to 50%.
For `O=c1[nH]c(COc2cc(Cl)cc(Cl)c2)nc2c(-c3csc(NCCO)n3)nccc12` [Compound 134, 2-((3,5-dichlorophenoxy)methyl)-8-(2-((2-hydroxyethyl)amino)thiazol-4-yl)pyrido[3,4-d]pyrimidin-4(3H)-one], the inhibition at 0.1 µM was 20 to 50%.
`O=c1[nH]c(COc2ccc(Cl)cc2Cl)nc2c(-c3csc(NCCO)n3)nccc12` [Compound 135, 2-((2,4-dichlorophenoxy)methyl)-8-(2-((2-hydroxyethyl)amino)thiazol-4-yl)pyrido[3,4-d]pyrimidin-4(3H)-one] was tested, and the inhibition at 0.1 µM was 20 to 50%.
For `O=c1[nH]c(COc2ccc(Cl)c(Cl)c2)nc2c(-c3csc(NCCO)n3)nccc12` [Compound 136, 2-((3,4-dichlorophenoxy)methyl)-8-(2-((2-hydroxyethyl)amino)thiazol-4-yl)pyrido[3,4-d]pyrimidin-4(3H)-one], the inhibition at 0.1 µM was ≥ 50%.
In the case of `Cc1nc2c(-c3csc(NCCO)n3)nccc2c(=O)[nH]1` [Compound 137, 8-(2-((2-hydroxyethyl)amino)thiazol-4-yl)-2-methylpyrido [3,4-d]pyrimidin-4(3H)-one], the inhibition at 0.1 µM is reported as < 20%.
For `CC(C)c1nc2c(-c3csc(NCCO)n3)nccc2c(=O)[nH]1` [Compound 138, 8-(2-((2-hydroxyethyl)amino)thiazol-4-yl)-2-isopropylpyrido[3,4-d]pyrimidin-4(3H)-one], the inhibition at 0.1 µM was < 20%.
`O=c1[nH]c(Cc2ccccc2)nc2c(-c3csc(NCCO)n3)nccc12` [Compound 139, 2-benzyl-8-(2-((2-hydroxyethyl)amino)thiazol-4-yl)pyrido[3,4-d]pyrimidin-4(3H)-one] was tested, and the inhibition at 0.1 µM was < 20%.
In the case of `CN(C)CCNc1nc(-c2nccc3c(=O)[nH]c(Cc4ccccc4)nc23)cs1` [Compound 140, 2-benzyl-8-(2-((2-(dimethylamino)ethyl)amino)thiazol-4-yl)pyrido[3,4-d]pyrimidin-4(3H)-one], the inhibition at 0.1 µM is reported as 20 to 50%.
In the case of `CC(c1ccccc1)c1nc2c(-c3csc(NCCO)n3)nccc2c(=O)[nH]1` (stereo not drawn) [Compound 141, 8-(2-((2-hydroxyethyl)amino)thiazol-4-yl)-2-(1-phenylethyl)pyrido[3,4-d]pyrimidin-4(3H)-one], the inhibition at 0.1 µM is reported as < 20%.
With `O=c1[nH]c(COCc2ccccc2)nc2c(-c3csc(NCCO)n3)nccc12` [Compound 142, 2-((benzyloxy)methyl)-8-(2-((2-hydroxyethyl)amino)thiazol-4-yl)pyrido[3,4-d]pyrimidin-4(3H)-one] the inhibition at 0.1 µM was 20 to 50%.
`CCC(O)CNc1nc(-c2nccc3c(=O)[nH]c(COCc4ccccc4)nc23)cs1` (stereo not drawn) [Compound 143, 2-((benzyloxy)methyl)-8-(2-((2-hydroxybutyl)amino)thiazol-4-yl)pyrido[3,4-d]pyrimidin-4(3H)-one] gave an inhibition at 0.1 µM of 20 to 50%.
In the case of `O=c1[nH]c(COCc2ccccc2)nc2c(-c3csc(NC4CCN(Cc5ccccc5)CC4)n3)nccc12` [Compound 144, 2-((benzyloxy)methyl)-8-(2-((1-benzylpiperidin-4-yl)amino)thiazol-4-yl)pyrido[3,4-d]pyrimidin-4(3H)-one], the inhibition at 0.1 µM is reported as < 20%.
In the case of `O=c1[nH]c(COCc2ccccc2)nc2c(-c3csc(NCC4CCN(Cc5ccccc5)CC4)n3)nccc12` [Compound 145, 2-((benzyloxy)methyl)-8-(2-(((1-benzylpiperidin-4-yl)methyl)amino)thiazol-4-yl)pyrido[3,4-d]pyrimidin-4(3H)-one], the inhibition at 0.1 µM is reported as < 20%.
In the case of `COCCNc1nc(-c2nccc3c(=O)[nH]c(COCc4ccccc4)nc23)cs1` [Compound 146, 2-((benzyloxy)methyl)-8-(2-((2-methoxyethyl)amino)thiazol-4-yl)pyrido[3,4-d]pyrimidin-4(3H)-one], the inhibition at 0.1 µM is reported as < 20%.
With `O=c1[nH]c(COCc2ccccc2)nc2c(-c3csc(NCCCO)n3)nccc12` [Compound 147, 2-((benzyloxy)methyl)-8-(2-((3-hydroxypropyl)amino)thiazol-4-yl)pyrido[3,4-d]pyrimidin-4(3H)-one] the inhibition at 0.1 µM was < 20%.
In the case of `CN(C)CCNc1nc(-c2nccc3c(=O)[nH]c(COCc4ccccc4)nc23)cs1` [Compound 148, 2-((benzyloxy)methyl)-8-(2-((2-(dimethylamino)ethyl)amino)thiazol-4-yl)pyrido[3,4-d]pyrimidin-4(3H)-one], the inhibition at 0.1 µM is reported as < 20%.
Work on `NCCNc1nc(-c2nccc3c(=O)[nH]c(COCc4ccccc4)nc23)cs1` [Compound 149, 8-(2-((2-aminoethyl)amino)thiazol-4-yl)-2-((benzyloxy)methyl)pyrido [3,4-d]pyrimidin-4(3H)-one] yielded an inhibition at 0.1 µM of 20 to 50%.
`CN(C)CCCNc1nc(-c2nccc3c(=O)[nH]c(COCc4ccccc4)nc23)cs1` [Compound 150, 2-((benzyloxy)methyl)-8-(2-((3-(dimethylamino)propyl)amino)thiazol-4-yl)pyrido[3,4-d]pyrimidin-4(3H)-one] was tested, and the inhibition at 0.1 µM was < 20%.
With `CN1CCN(CCNc2nc(-c3nccc4c(=O)[nH]c(COCc5ccccc5)nc34)cs2)CC1` [Compound 151, 2-((benzyloxy)methyl)-8-(2-((2-(4-methylpiperazin-1-yl)ethyl)amino)thiazol-4-yl)pyrido[3,4-d]pyrimidin-4(3H)-one] the inhibition at 0.1 µM was < 20%.
In the case of `CN1CCCC1CCNc1nc(-c2nccc3c(=O)[nH]c(COCc4ccccc4)nc23)cs1` (stereo not drawn) [Compound 152, 2-((benzyloxy)methyl)-8-(2-((2-(1-methylpyrrolidin-2-yl)ethyl)amino)thiazol-4-yl)pyrido[3,4-d]pyrimidin-4(3H)-one], the inhibition at 0.1 µM is reported as < 20%.
For `O=c1[nH]c(COCc2ccccc2)nc2c(-c3csc(NCC4CCN(CCO)CC4)n3)nccc12` [Compound 153, 2-((benzyloxy)methyl)-8-(2-(((1-(2-hydroxyethyl)piperidin-4-yl)methyl)amino)thiazol-4-yl)pyrido[3,4-d]pyrimidin-4(3H)-one], the inhibition at 0.1 µM was < 20%.
